Source: patent publication US20220378706A1, “PHARMACEUTICAL COMPOSITION COMPRISING PDE9 INHIBITOR” (Eisai R&D Management Co., Ltd., priority 2017, published 2022)
Like-named read-outs stand apart in the source and are kept apart here.

Experiment: Multiple ascending dose study: plasma pharmacokinetics
Type: in vivo
Settings: human, po; for Tmax: read-out: tmax Median
Protocol: Four sequential cohorts of healthy participants (≥50 years and ≤85 years old) were treated with multiple ascending doses of Compound A up to the maximum tolerated dose (MTD). A total of 6 participants per cohort were randomized to Compound A. Proposed doses of Compound A were:
Participants received Compound A capsules, orally once daily (QD) on Days 1 to 14 after an overnight fast of at least 10 hours. Compound A was administered orally with 240 milliliter (mL) (8 fluid ounces) of water.
1) Maximum drug concentration (Cmax) [Time Frame: Day 1 and Day 14]
Blood samples were collected on Day 1 at predose and postdose 0.5 (30 minutes), 1, 1.5, 2, 3, 4, 5, 6, 8, 12, and 18 hours; Day 14 (at predose and postdose 0.5, 1, 1.5, 2, 3, 4, 5, 6, 8, 12, and 18 hours); and Day 15 (24 hours postdose from Day 14).
2) Mean time to reach maximum (peak) drug concentration (tmax) [Time Frame: Day 1 and Day 14]
4) Mean area under the concentration-time curve from zero time extrapolated to infinity (AUC(0-inf)) [Time Frame: Day 14]

## COc1ncc(C)c(-c2ccc3c(c2)[nH]c(=O)c2cnn([C@H]4CCOC4)c23)c1C [Compound A, (S)-7-(2-methoxy-3,5-dimethylpyridin-4-yl)-1-(tetrahydrofuran-3-yl)-1H-pyrazolo[4,3-c]quin olin-4(5H)-one]
50 mg, Part C, 50 mg oral, read-out: Cmax GM (% CV)
  Cmax: 594 ng/mL
50 mg, Part C, 50 mg oral, read-out: Cmax Mean (SD)
  Cmax: 608 ng/mL
50 mg, Part C, 50 mg oral, read-out: Cmax Median
  Cmax: 590 ng/mL
50 mg, Part C, 50 mg oral
  Tmax: 1.98 h
100 mg, Day 1, 100 mg QD oral, read-out: AUC(0-24 h) GM (% CV)
  AUC(0-t): 5230 ng·h/mL
100 mg, Day 1, 100 mg QD oral, read-out: AUC(0-24 h) Mean (SD)
  AUC(0-t): 5250 ng·h/mL
100 mg, Day 1, 100 mg QD oral, read-out: AUC(0-24 h) Median
  AUC(0-t): 5180 ng·h/mL
100 mg, Day 1, 100 mg QD oral, read-out: Cmax GM (% CV)
  Cmax: 366 ng/mL
100 mg, Day 1, 100 mg QD oral, read-out: Cmax Mean (SD)
  Cmax: 373 ng/mL
100 mg, Day 1, 100 mg QD oral, read-out: Cmax Median
  Cmax: 344 ng/mL
100 mg, Day 1, 100 mg QD oral
  Tmax: 2.53 h
100 mg, Day 14, 100 mg QD oral, read-out: AUC(0-24 h) GM (% CV)
  AUC(0-t): 16600 ng·h/mL
100 mg, Day 14, 100 mg QD oral, read-out: AUC(0-24 h) Mean (SD)
  AUC(0-t): 16900 ng·h/mL
100 mg, Day 14, 100 mg QD oral, read-out: AUC(0-24 h) Median
  AUC(0-t): 16800 ng·h/mL
100 mg, Day 14, 100 mg QD oral, read-out: AUC(0-inf) GM (% CV)
  AUC(0-inf): 56400 ng·h/mL
100 mg, Day 14, 100 mg QD oral, read-out: AUC(0-inf) Mean (SD)
  AUC(0-inf): 58600 ng·h/mL
100 mg, Day 14, 100 mg QD oral, read-out: AUC(0-inf) Median
  AUC(0-inf): 62700 ng·h/mL
100 mg, Day 14, 100 mg QD oral, read-out: Cmax GM (% CV)
  Cmax: 1010 ng/mL
100 mg, Day 14, 100 mg QD oral, read-out: Cmax Mean (SD)
  Cmax: 1020 ng/mL
100 mg, Day 14, 100 mg QD oral, read-out: Cmax Median
  Cmax: 1030 ng/mL
100 mg, Day 14, 100 mg QD oral
  Tmax: 2.56 h
200 mg, Day 1, 200 mg QD oral, read-out: AUC(0-24 h) GM (% CV)
  AUC(0-t): 8650 ng·h/mL
200 mg, Day 1, 200 mg QD oral, read-out: AUC(0-24 h) Mean (SD)
  AUC(0-t): 9050 ng·h/mL
200 mg, Day 1, 200 mg QD oral, read-out: AUC(0-24 h) Median
  AUC(0-t): 10400 ng·h/mL
200 mg, Day 1, 200 mg QD oral, read-out: Cmax GM (% CV)
  Cmax: 687 ng/mL
200 mg, Day 1, 200 mg QD oral, read-out: Cmax Mean (SD)
  Cmax: 740 ng/mL
200 mg, Day 1, 200 mg QD oral, read-out: Cmax Median
  Cmax: 813 ng/mL
200 mg, Day 1, 200 mg QD oral
  Tmax: 2.01 h
200 mg, Day 14, 200 mg QD oral, read-out: AUC(0-24 h) GM (% CV)
  AUC(0-t): 22800 ng·h/mL
200 mg, Day 14, 200 mg QD oral, read-out: AUC(0-24 h) Mean (SD)
  AUC(0-t): 23100 ng·h/mL
200 mg, Day 14, 200 mg QD oral, read-out: AUC(0-24 h) Median
  AUC(0-t): 21300 ng·h/mL
200 mg, Day 14, 200 mg QD oral, read-out: AUC(0-inf) GM (% CV)
  AUC(0-inf): 70500 ng·h/mL
200 mg, Day 14, 200 mg QD oral, read-out: AUC(0-inf) Mean (SD)
  AUC(0-inf): 72200 ng·h/mL
200 mg, Day 14, 200 mg QD oral, read-out: AUC(0-inf) Median
  AUC(0-inf): 61900 ng·h/mL
200 mg, Day 14, 200 mg QD oral, read-out: Cmax GM (% CV)
  Cmax: 1680 ng/mL
200 mg, Day 14, 200 mg QD oral, read-out: Cmax Mean (SD)
  Cmax: 1730 ng/mL
200 mg, Day 14, 200 mg QD oral, read-out: Cmax Median
  Cmax: 1950 ng/mL
200 mg, Day 14, 200 mg QD oral
  Tmax: 2 h
400 mg, Day 1, 400 mg QD oral, Japanese, read-out: AUC(0-24 h) GM (% CV)
  AUC(0-t): 18300 ng·h/mL
400 mg, Day 1, 400 mg QD oral, Japanese, read-out: AUC(0-24 h) Mean (SD)
  AUC(0-t): 18400 ng·h/mL
400 mg, Day 1, 400 mg QD oral, Japanese, read-out: AUC(0-24 h) Median
  AUC(0-t): 18900 ng·h/mL
400 mg, Day 1, 400 mg QD oral, Japanese, read-out: Cmax GM (% CV)
  Cmax: 1510 ng/mL
400 mg, Day 1, 400 mg QD oral, Japanese, read-out: Cmax Mean (SD)
  Cmax: 1520 ng/mL
400 mg, Day 1, 400 mg QD oral, Japanese, read-out: Cmax Median
  Cmax: 1510 ng/mL
400 mg, Day 1, 400 mg QD oral, Japanese
  Tmax: 2 h
400 mg, Day 1, 400 mg QD oral, Non-Japanese, read-out: AUC(0-24 h) GM (% CV)
  AUC(0-t): 14500 ng·h/mL
400 mg, Day 1, 400 mg QD oral, Non-Japanese, read-out: AUC(0-24 h) Mean (SD)
  AUC(0-t): 14600 ng·h/mL
400 mg, Day 1, 400 mg QD oral, Non-Japanese, read-out: AUC(0-24 h) Median
  AUC(0-t): 14700 ng·h/mL
400 mg, Day 1, 400 mg QD oral, Non-Japanese, read-out: Cmax GM (% CV)
  Cmax: 1100 ng/mL
400 mg, Day 1, 400 mg QD oral, Non-Japanese, read-out: Cmax Mean (SD)
  Cmax: 1100 ng/mL
400 mg, Day 1, 400 mg QD oral, Non-Japanese, read-out: Cmax Median
  Cmax: 1140 ng/mL
400 mg, Day 1, 400 mg QD oral, Non-Japanese
  Tmax: 1.76 h
400 mg, Day 14, 400 mg QD oral, Japanese, read-out: AUC(0-24 h) GM (% CV)
  AUC(0-t): 42700 ng·h/mL
400 mg, Day 14, 400 mg QD oral, Japanese, read-out: AUC(0-24 h) Mean (SD)
  AUC(0-t): 42900 ng·h/mL
400 mg, Day 14, 400 mg QD oral, Japanese, read-out: AUC(0-24 h) Median
  AUC(0-t): 43200 ng·h/mL
400 mg, Day 14, 400 mg QD oral, Japanese, read-out: AUC(0-inf) GM (% CV)
  AUC(0-inf): 122000 ng·h/mL
400 mg, Day 14, 400 mg QD oral, Japanese, read-out: AUC(0-inf) Mean (SD)
  AUC(0-inf): 125000 ng·h/mL
400 mg, Day 14, 400 mg QD oral, Japanese, read-out: AUC(0-inf) Median
  AUC(0-inf): 120000 ng·h/mL
400 mg, Day 14, 400 mg QD oral, Japanese, read-out: Cmax GM (% CV)
  Cmax: 3080 ng/mL
400 mg, Day 14, 400 mg QD oral, Japanese, read-out: Cmax Mean (SD)
  Cmax: 3100 ng/mL
400 mg, Day 14, 400 mg QD oral, Japanese, read-out: Cmax Median
  Cmax: 3250 ng/mL
400 mg, Day 14, 400 mg QD oral, Japanese
  Tmax: 1.5 h
400 mg, Day 14, 400 mg QD oral, Non-Japanese, read-out: AUC(0-24 h) GM (% CV)
  AUC(0-t): 39200 ng·h/mL
400 mg, Day 14, 400 mg QD oral, Non-Japanese, read-out: AUC(0-24 h) Mean (SD)
  AUC(0-t): 40300 ng·h/mL
400 mg, Day 14, 400 mg QD oral, Non-Japanese, read-out: AUC(0-24 h) Median
  AUC(0-t): 43900 ng·h/mL
400 mg, Day 14, 400 mg QD oral, Non-Japanese, read-out: AUC(0-inf) GM (% CV)
  AUC(0-inf): 121000 ng·h/mL
400 mg, Day 14, 400 mg QD oral, Non-Japanese, read-out: AUC(0-inf) Mean (SD)
  AUC(0-inf): 135000 ng·h/mL
400 mg, Day 14, 400 mg QD oral, Non-Japanese, read-out: AUC(0-inf) Median
  AUC(0-inf): 141000 ng·h/mL
400 mg, Day 14, 400 mg QD oral, Non-Japanese, read-out: Cmax GM (% CV)
  Cmax: 2740 ng/mL
400 mg, Day 14, 400 mg QD oral, Non-Japanese, read-out: Cmax Mean (SD)
  Cmax: 2820 ng/mL
400 mg, Day 14, 400 mg QD oral, Non-Japanese, read-out: Cmax Median
  Cmax: 3050 ng/mL
400 mg, Day 14, 400 mg QD oral, Non-Japanese
  Tmax: 1.79 h
